Marks after values point to notes of the source that are not given here.
Columns and labels:
adjuvant arthritis mice [1] = experiment: Adjuvant arthritis mice: hyperalgesia (phlogogenic paw thermal withdrawal latency); format: in vivo, Kunming mice
Procedure: (§1) BCG was inactivated in water bath at 80° C., and fully emulsified along with complete Freund's adjuvant to form complete Freund's adjuvant emulsion containing 5 mg/ml BCG, preserved at 4° C., and shake well before use. The Kunming mice were divided into a modeling group and a false modeling group. According to the method recited in the literature [Rasool M, Sabina E P, Lavanya B. Anti-inflammatory effect of Spirulina fusiformis on adjuvant-induced arthritis in mice. Biol Pharm Bull. 2006, 29(12):2483-7], for the modeling group, the model was prepared by intradermal injection of 20 ul the emulsion under the plantar surface of right paws after the mice was narcotized; for the false modeling group, the emulsion was replaced with physiological saline. For the modeling group, the animals were screened on Day 8 after injection: the mice with the injected paw thickness increased >0.5 mm and thermal hyperalgesia occurred (paw thermal withdrawal latency <8 second) were selected as experimental subjects. The selected mice were divided into 5 groups randomly: low, middle, high dose treatment group (0.8, 4, 20 mg/kg); indomethacin positive control group (10 mg/kg); negative control group (physiological saline), each comprising 12 animals. Day 8 after inflammation, intragastric administration was carried out on each group to give corresponding intervention, one time per day for 10 days continuously.
30 min after intragastric administration, the phlogogenic paw thermal withdrawal latency of the mice in each group was determined by photo-thermal dolorimeter to reflect animals' hyperalgesia status.

adjuvant arthritis mice [2] = experiment: Adjuvant arthritis mice: condition and body weight; format: in vivo, Kunming mice
Procedure: as §1, with “Day 8 after inflammation, intragastric administration was carried out on each group to give corresponding intervention, one time per day for 10 days continuously.” left out

[3] = tested on: type II collagen-induced arthritis rat; experiment: Type II collagen-induced arthritis rat: thermal hyperalgesia (thermal withdrawal latency); format: in vivo, Wistar rat; conditions: for Thermal stimulus withdrawal latency, Intervention Day 2: intervention Day 2, 1 hour after administration; for Thermal stimulus withdrawal latency, Intervention Day 4: intervention Day 4, 1 hour after administration; for Thermal stimulus withdrawal latency, Intervention Day 6: intervention Day 6, 1 hour after administration; for Thermal stimulus withdrawal latency, Intervention Day 8: intervention Day 8, 1 hour after administration; for Thermal stimulus withdrawal latency, Intervention Day 10: intervention Day 10, 1 hour after administration
Procedure: (§2) Under aseptic conditions, 10 mg chicken type II collagen protein was fully mixed with 5 ml 10 mM glacial acetic acid solution, and stirred overnight in refrigerator at 4° C. to fully dissolve it. It was mixed with complete Freund's adjuvant in equal volume in ice bath to fully emulsify into an emulsion with a collagen concentration of 1 mg/ml.
(§3) Wistar rats are divided into a modeling group and a false modeling group. After the modeling group rats were narcotized with intraperitoneal injection of pentobarbital, the above emulsion was injected intracutaneously at 3 to 4 positions at back, tail root or the like, 0.3 ml for each, an primary immunity was carried out. After 7 days, a secondary immunity was carried out, the emulsifying agent complete Freund's adjuvant of initial immunity was replaced with incomplete Freund's adjuvant, 0.1 ml the emulsion was injected under sevoflurane inhalation anesthesia wherein the injection position is different from the last time. In false modeling group, the emulsion was replaced with solvent glacial acetic acid solution.
Successfully modeled rat in the modeling group were randomly divide into 5 groups: low, middle, high-dose koumine treatment group, positive control group, negative control group, 10 rats for each group. Beginning from Day 21 after modeling, corresponding intervention was carried out as following in 10 days continuously: 0.6, 3, 15 mg/kg koumine were intragastrically administrated to the low, middle, high-dose koumine treatment group respectively, 1 time every day; 1 mg/kg amethopterin was administrated to the positive control group, 1 time every 3 days, equal volume of physiological saline was administrated for the remained days; equal volume of physiological saline was administrated to the negative control group.
1 hour after intragastric administration, the thermal withdrawal latency of each group was determined by the photo-thermal dolorimeter; the mechanical pain threshold of rats of each group was determined by Von-frey electromechanical pain threshold detector, thus the condition of thermal hyperalgesia and mechanical hyperalgesia of rats of each group was observed.

[4] = tested on: type II collagen-induced arthritis rat; experiment: Type II collagen-induced arthritis rat: joint pathological change, X-ray; format: in vivo, Wistar rat; conditions: high dose and middle dose of koumine (15 and 3 mg/kg); 9 days after intervention
Procedure: as §2, §3
Successfully modeled rat in the modeling group were randomly divide into 5 groups: low, middle, high-dose koumine treatment group, positive control group, negative control group, 10 rats for each group. […]

[5] = koumine 0.8 mg/kg intragastric once daily from Day 8
[6] = koumine 4 mg/kg intragastric once daily from Day 8
[7] = koumine 20 mg/kg intragastric once daily from Day 8
[8] = koumine 0.6 mg/kg intragastric once daily
[9] = koumine 3 mg/kg intragastric once daily
[10] = koumine 15 mg/kg intragastric once daily

C=CC12CN(C)C3CC14C(=Nc1ccccc14)C1CC2C3CO1 (centres unmarked) [Koumine]
Thermal stimulus withdrawal latency, Before intervention (adjuvant arthritis mice [1]; koumine 0.8 mg/kg intragastric once daily for 10 days from Day 8 after inflammation): 14.1 ± 1.1 s | Thermal stimulus withdrawal latency, Intervention Day 4 (adjuvant arthritis mice [1]; [5]): 5.9 ± 1.3^★★ second | Thermal stimulus withdrawal latency, Intervention Day 8 (adjuvant arthritis mice [1]; [5]): 4.9 ± 1.1^★★ second | Thermal stimulus withdrawal latency, Intervention Day 12 (adjuvant arthritis mice [1]; [5]): 4.9 ± 1.0*^★ second | Thermal stimulus withdrawal latency, Intervention Day 16 (adjuvant arthritis mice [1]; [5]): 5.9 ± 1.0**^★ second | Thermal stimulus withdrawal latency, Intervention Day 18 (adjuvant arthritis mice [1]; [5]): 6.1 ± 1.2**^★★ second | Thermal stimulus withdrawal latency, Before intervention (adjuvant arthritis mice [1]; koumine 4 mg/kg intragastric once daily for 10 days from Day 8 after inflammation): 13.6 ± 1.1 s | Thermal stimulus withdrawal latency, Intervention Day 4 (adjuvant arthritis mice [1]; [6]): 5.8 ± 1.5^★★ second | Thermal stimulus withdrawal latency, Intervention Day 8 (adjuvant arthritis mice [1]; [6]): 4.3 ± 0.8 s | Thermal stimulus withdrawal latency, Intervention Day 12 (adjuvant arthritis mice [1]; [6]): 6.7 ± 1.9**^★ second | Thermal stimulus withdrawal latency, Intervention Day 16 (adjuvant arthritis mice [1]; [6]): 7.8 ± 1.9**^★ second | Thermal stimulus withdrawal latency, Intervention Day 18 (adjuvant arthritis mice [1]; [6]): 8.4 ± 1.8**^★★ second | Thermal stimulus withdrawal latency, Before intervention (adjuvant arthritis mice [1]; koumine 20 mg/kg intragastric once daily for 10 days from Day 8 after inflammation): 13.9 ± 1.1 s | Thermal stimulus withdrawal latency, Intervention Day 4 (adjuvant arthritis mice [1]; [7]): 6.1 ± 1.4^★★ second | Thermal stimulus withdrawal latency, Intervention Day 8 (adjuvant arthritis mice [1]; [7]): 4.7 ± 1.5^★★ second | Thermal stimulus withdrawal latency, Intervention Day 12 (adjuvant arthritis mice [1]; [7]): 9.2 ± 1.2**^★ second | Thermal stimulus withdrawal latency, Intervention Day 16 (adjuvant arthritis mice [1]; [7]): 10.7 ± 1.2**^★★ second | Thermal stimulus withdrawal latency, Intervention Day 18 (adjuvant arthritis mice [1]; [7]): 10.8 ± 1.1**^★★ second | Effect on thermal stimulus withdrawal latency (summary of Table 1) (adjuvant arthritis mice [1]; koumine 0.8, 4, 20 mg/kg intragastric, dose-effect and time-effect relationships): can significantly extend the thermal stimulus withdrawal latency | Effect on body weight of adjuvant arthritis mice (FIG. 1) (adjuvant arthritis mice [2]; koumine 0.8, 4, 20 mg/kg intragastric once daily, Day 4-18 after inflammation): dose dependent antagonistic effect on body weight reducing | Food intake and activity after inflammation (adjuvant arthritis mice [2]; koumine treatment group 0.8, 4, 20 mg/kg intragastric, negative control decreased obviously): no obvious change was observed | Thermal stimulus withdrawal latency, Before intervention [3, 8]: 7.50 ± 1.34 s | Thermal stimulus withdrawal latency, Intervention Day 2 [3, 8]: 7.81 ± 1.39 s | Thermal stimulus withdrawal latency, Intervention Day 4 [3, 8]: 8.42 ± 1.24 s | Thermal stimulus withdrawal latency, Intervention Day 6 [3, 8]: 10.30 ± 0.73**^★ second | Thermal stimulus withdrawal latency, Intervention Day 8 [3, 8]: 8.96 ± 0.81 s | Thermal stimulus withdrawal latency, Intervention Day 10 [3, 8]: 8.62 ± 2.21 s | Thermal stimulus withdrawal latency, Before intervention [3, 9]: 8.03 ± 1.98 s | Thermal stimulus withdrawal latency, Intervention Day 2 [3, 9]: 8.07 ± 1.86 s | Thermal stimulus withdrawal latency, Intervention Day 4 [3, 9]: 9.16 ± 1.18 s | Thermal stimulus withdrawal latency, Intervention Day 6 [3, 9]: 11.18 ± 2.03**^★ second | Thermal stimulus withdrawal latency, Intervention Day 8 [3, 9]: 10.40 ± 1.74 s | Thermal stimulus withdrawal latency, Intervention Day 10 [3, 9]: 11.62 ± 1.21**^★ second | Thermal stimulus withdrawal latency, Before intervention [3, 10]: 7.68 ± 2.48 s | Thermal stimulus withdrawal latency, Intervention Day 2 [3, 10]: 9.41 ± 0.68 s | Thermal stimulus withdrawal latency, Intervention Day 4 [3, 10]: 10.82 ± 1.07 s | Thermal stimulus withdrawal latency, Intervention Day 6 [3, 10]: 12.98 ± 1.13**^★ second | Thermal stimulus withdrawal latency, Intervention Day 8 [3, 10]: 13.44 ± 1.72 s | Thermal stimulus withdrawal latency, Intervention Day 10 [3, 10]: 13.87 ± 1.26**^★ second | Effect on thermal stimulus withdrawal latency (summary of Table 3) ([3]; koumine 0.6, 3, 15 mg/kg intragastric, dose-effect relationship): can significantly extend the thermal stimulus withdrawal latency | Joint pathological change, X-ray images (FIG. 8) [4]: relieve the bone destruction of ankle joint

Source: patent US9078890B2, “Use of koumine and its homologues in preparation of medicament for treatment of autoimmune diseases of involved bones and joints” (priority 2011, dated 2015)
